Type in all cases: cell-based
The target of one assay is PKC beta 2 (Homo sapiens, UniProt P05771). Nature of the assay: Cellular assay of protein kinase C inhibition, PKC beta 2. Also on record: key: *: IC 50 too high to be measured by apparatus. Here is the method: (§1) CKC was tested on a cellular assay to evaluate the protein kinase C inhibition (PKC). Four subtypes of PKC are evaluated (α, β1, β2 and δ). Table 1. Cellular assay to evaluate the action of CKC on four subtypes of PKC.

In the next assay the target is PKC delta (Homo sapiens, UniProt Q05655). Kind of assay: Cellular assay of protein kinase C inhibition, PKC delta. Further details: key: *: IC 50 too high to be measured by apparatus. Here is the method:
as §1

The target in the next assay is PKC beta 1 (Homo sapiens, UniProt P05771). Kind of assay: Cellular assay of protein kinase C inhibition, PKC beta 1. Also on record: key: *: IC 50 too high to be measured by apparatus. Here is the method: as §1
The target in a further assay is PKC alpha (Homo sapiens, UniProt P17252). Nature of the assay: Cellular assay of protein kinase C inhibition, PKC alpha. As to conditions: read-out: IC 50 PKC alpha. Here is the method:
as §1

PKC beta 2, sequence (P05771 1-673 isoform P05771-2): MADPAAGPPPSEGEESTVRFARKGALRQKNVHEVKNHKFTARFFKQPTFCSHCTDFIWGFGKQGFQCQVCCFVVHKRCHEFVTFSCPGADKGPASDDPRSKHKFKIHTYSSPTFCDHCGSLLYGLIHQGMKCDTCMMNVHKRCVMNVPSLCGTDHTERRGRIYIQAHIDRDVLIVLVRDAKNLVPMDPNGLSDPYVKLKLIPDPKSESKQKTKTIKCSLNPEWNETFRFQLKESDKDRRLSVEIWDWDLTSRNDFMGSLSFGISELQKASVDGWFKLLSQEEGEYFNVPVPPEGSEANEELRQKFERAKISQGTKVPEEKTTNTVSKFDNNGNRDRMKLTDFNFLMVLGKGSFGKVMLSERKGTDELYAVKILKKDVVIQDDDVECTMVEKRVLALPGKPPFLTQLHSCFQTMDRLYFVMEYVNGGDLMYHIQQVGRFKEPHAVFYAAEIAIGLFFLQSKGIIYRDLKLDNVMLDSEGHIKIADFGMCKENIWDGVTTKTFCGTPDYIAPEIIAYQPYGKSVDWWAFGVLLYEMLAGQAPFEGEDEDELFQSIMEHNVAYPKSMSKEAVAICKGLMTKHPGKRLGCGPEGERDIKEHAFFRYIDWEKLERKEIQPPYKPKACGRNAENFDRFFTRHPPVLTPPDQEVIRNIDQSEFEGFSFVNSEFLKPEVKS
PKC delta, sequence (Q05655 whole entry): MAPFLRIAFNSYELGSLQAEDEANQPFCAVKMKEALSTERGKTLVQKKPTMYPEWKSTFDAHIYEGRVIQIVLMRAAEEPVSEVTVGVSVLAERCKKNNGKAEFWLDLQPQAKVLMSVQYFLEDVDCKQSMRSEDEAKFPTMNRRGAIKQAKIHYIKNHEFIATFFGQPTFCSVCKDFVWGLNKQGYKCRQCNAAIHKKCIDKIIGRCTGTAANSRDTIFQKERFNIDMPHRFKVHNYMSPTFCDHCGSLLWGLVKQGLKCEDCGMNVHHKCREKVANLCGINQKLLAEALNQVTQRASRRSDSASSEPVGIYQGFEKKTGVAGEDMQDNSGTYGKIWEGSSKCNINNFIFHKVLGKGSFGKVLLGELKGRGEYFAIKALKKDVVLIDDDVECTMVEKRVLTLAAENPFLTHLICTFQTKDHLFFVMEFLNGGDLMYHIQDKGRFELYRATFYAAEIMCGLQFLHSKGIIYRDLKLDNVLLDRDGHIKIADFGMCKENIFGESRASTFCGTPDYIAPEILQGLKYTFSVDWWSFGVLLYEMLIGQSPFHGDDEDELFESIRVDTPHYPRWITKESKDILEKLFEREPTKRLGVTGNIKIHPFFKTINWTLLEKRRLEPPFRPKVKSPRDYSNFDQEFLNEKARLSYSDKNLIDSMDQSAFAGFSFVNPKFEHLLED
PKC beta 1, sequence (P05771 whole entry): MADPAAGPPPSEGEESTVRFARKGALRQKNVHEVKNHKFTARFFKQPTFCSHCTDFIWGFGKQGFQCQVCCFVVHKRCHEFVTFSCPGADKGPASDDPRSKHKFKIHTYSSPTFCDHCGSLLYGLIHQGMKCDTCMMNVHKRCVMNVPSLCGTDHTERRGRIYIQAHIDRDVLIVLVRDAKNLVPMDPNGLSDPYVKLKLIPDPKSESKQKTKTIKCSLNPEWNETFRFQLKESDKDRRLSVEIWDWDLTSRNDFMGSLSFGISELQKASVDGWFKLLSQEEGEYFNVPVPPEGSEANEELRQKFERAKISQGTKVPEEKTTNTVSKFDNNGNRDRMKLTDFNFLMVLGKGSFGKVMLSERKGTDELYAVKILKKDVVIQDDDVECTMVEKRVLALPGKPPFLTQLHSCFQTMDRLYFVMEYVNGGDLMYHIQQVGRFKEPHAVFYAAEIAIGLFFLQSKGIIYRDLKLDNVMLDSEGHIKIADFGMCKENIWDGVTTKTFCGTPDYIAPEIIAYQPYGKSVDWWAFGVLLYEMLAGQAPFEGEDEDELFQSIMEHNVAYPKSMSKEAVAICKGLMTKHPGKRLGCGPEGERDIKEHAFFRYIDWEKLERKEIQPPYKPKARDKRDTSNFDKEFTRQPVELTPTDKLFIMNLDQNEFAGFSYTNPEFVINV

With `CCCCCCCCCCCCCCCC[N+](C)(C)Cc1ccccc1` [CKC, cetalkonium chloride], the “IC 50 PKC beta 2” value against PKC beta 2 is reported as “*”. In addition, the “IC 50 PKC delta” value on PKC delta is “*”. Further, on PKC beta 1, the “IC 50 PKC beta 1” value was “*”. Besides, at PKC alpha, the IC50 turned out to be 4.29 µM.

The record behind these values is patent EP3011959A1, “Quaternary ammonium compound for use as an inhibitor of protein kinase C alpha” (Santen SAS, priority 2014, dated 2016).
